This note sets out measurements from patent US4880924A, “Novel compounds and use thereof in selective cyclization process” (Nelson Research & Development Co., priority 1986, dated 1989).

Each structure is given as a SMILES string.

Assay [1] addresses T1, sodium-dependent GABA binding sites (Mus musculus).
T1 construct: from tissue; host or cells: mouse brain membranes
Description: displacement of 3H-GABA from sodium-dependent GABA binding sites in mouse brain membranes (GABA reuptake inactivation process). Particulars: read-out: Concentration of the test compound showing 50% inhibition of labelled ligand binding. How it is done:
(§1) The novel compound prepared above was investigated for its potency in interaction with GABA receptor sites in BRAIN. As described in detail in Roberts et. al. J. Neuroscience, Vol. 1, No. 2, pp. 132-140 (1981), two experiments were performed: (1) the potency of the compound in displacing ^3 H-muscimol, a known GABA agonist, from specific GABA receptor sites in mouse brain membranes, and (2) the potency in displacing ^3 H-GABA from sodium-dependent GABA binding sites in mouse brain membranes, which reflects potency for the GABA reuptake inactivation process. […] This reflects very good potency for the compound prepared in Example 4.

Assay [2] addresses GABA receptor sites. Description: displacement of 3H-muscimol from specific GABA receptor sites in mouse brain membranes. The settings on record: read-out: Concentration of the test compound showing 50% inhibition of labelled ligand binding. The protocol:
as §1

Regarding `NCCC(C(=O)O)C1COC(=O)C1` (stereo not drawn) [Example 4, α-(2-aminoethyl)tetrahydro-5-oxo-3-furan acetic acid], the IC50 in assay [1] worked out at 25 µM; in assay [2], 2.1 µM.
